The numbers were not newly measured in US6569404B1, “Phase shift colloids as ultrasound contrast agents” (priority 1993, dated 2003), which cites them from elsewhere.

Molecules are shown by their SMILES.

For one data set the following is noted: Chemical List of low boiling liquids, Example 45; cited from earlier work.
Regarding `Cc1cc2ccccc2c2cc3ccccc3cc12` [1,2-Benzanthracene, 4-methyl], the “Boiling Point” value is 1.0 degrees Celcius.

`C=C=CC` [1,2-Butadiene]: the “Boiling Point” value was 10.8 degrees Celcius.

For `FC(F)=C(F)C(F)=C(F)F` [1,3-Butadiene, hexafluoro], the “Boiling Point” value is 6.0 degrees Celcius.

`C=CC=C` [1,3-Butadiene]: the “Boiling Point” value was −4.4 degrees Celcius.

Turning to `C#CCCC#CC` [1,5-Heptadiyne], the “Boiling Point” value is 26.0 degrees Celcius.

Turning to `FC(F)=C(F)C(F)(F)C(F)(F)F` [1-Butene, perfluoro], the “Boiling Point” value is reported as 4.8 degrees Celcius.

Take `C=CC#CCCCCC` [1-Nonene-3-yne]: the “Boiling Point” value is on record as 27.0 degrees Celcius.

Regarding `FC(F)=C(F)C(F)(F)C(F)(F)C(F)(F)F` [1-Pentene, perfluoro], the “Boiling Point” value is reported as 29.0 degrees Celcius.

For `C/C=C/C` [2-Butene (trans)], the “Boiling Point” value is recorded as 0.9 degrees Celcius.

Take `FC(=C(F)C(F)(F)F)C(F)(F)F` [2-Butene, octafluoro]: the “Boiling Point” value is reported as 1.2 degrees Celcius.

In the case of `FC(=C(F)C(F)(F)F)C(F)(F)F` [2-Butene, perfluoro], the “Boiling Point” value is 0.0 degrees Celcius.

Consider `FC(F)(F)C#CC(F)(F)F` [2-Butyne, perfluoro], for which the “Boiling Point” value is on record as −24.6 degrees Celcius.

Regarding `O=C(C(F)(F)F)C(F)(F)F` [Acetone, hexafluoro], the “Boiling Point” value is −28.0 degrees Celcius.

Take `CC(=O)F` [Acetyl fluoride]: the “Boiling Point” value is 20.8 degrees Celcius.

In the case of `C#CC(C)C` [Acetylene, isopropyl], the “Boiling Point” value is on record as 0.0 degrees Celcius.

Turning to `FC(F)=C=C(F)F` [Allene, tetrafluoro], the “Boiling Point” value was −38.0 degrees Celcius.

For the compound `C=C=C` [Allene], the “Boiling Point” value is given as −34.5 degrees Celcius.

`[Ar]` [Argon]: the “Boiling Point” value was −189.4 degrees Celcius.

For `FC(F)(F)N=NC(F)(F)F` [Azomethane, hexafluoro], the “Boiling Point” value is −31.6 degrees Celcius.

With `CN=NC` [Azomethane], the “Boiling Point” value is listed as 1.5 degrees Celcius.

On to `O=C(Cl)c1c(Cl)c(Cl)c(Cl)c(Cl)c1Cl` [Benzoyl chloride, pentachloro], for which the “Boiling Point” value is 5.0 degrees Celcius.

For the compound `CCCCON=O` [Butyl nitrite], the “Boiling Point” value is reported as −77.8 degrees Celcius.

With `O=C=O` [Carbon dioxide], the “Boiling Point” value is −78.6 degrees Celcius.

On to `O=C=C=C=O` [Carbon suboxide], for which the “Boiling Point” value is recorded as 6.8 degrees Celcius.

Regarding `O=C=S` [Carbonyl sulfide], the “Boiling Point” value is listed as −50.0 degrees Celcius.

Turning to `CC=CC#N` [Crotononitrile], the “Boiling Point” value is on record as 12.0 degrees Celcius.

Consider `FC1=C(F)C(F)(F)C1(F)F` [Cyclobutene, perfluoro], for which the “Boiling Point” value is recorded as 3.0 degrees Celcius.

Turning to `CCC1CC1` [Cyclopropane, ethyl], the “Boiling Point” value is listed as 34.5 degrees Celcius.

Regarding `CC1CC1` [Cyclopropane, methyl], the “Boiling Point” value is listed as 4.0 degrees Celcius.

`C1CC1` [Cyclopropane]: the “Boiling Point” value is on record as −32.7 degrees Celcius.

Consider `FC(F)(F)C(F)(F)C(F)(F)C(F)(F)F` [Decaflurobutane], for which the “Boiling Point” value was 4.0 degrees Celcius.

For `C#CC#C` [Diacetylene], the “Boiling Point” value was 22.0 degrees Celcius.

On to `FC(F)(F)SSC(F)(F)F` [Dimethyl disulfide, hexafluoro], for which the “Boiling Point” value is 34.6 degrees Celcius.

As for `CCN(C)C` [Dimethyl ethyl amine], the “Boiling Point” value is on record as 36.0 degrees Celcius.

As to `COC.Cl` [Dimethyloxonium chloride], the “Boiling Point” value is on record as −2.0 degrees Celcius.

Turning to `FC(F)OCC(F)(F)F` [Ether, difluoromethyl 2,2,2-trifluoroethyl], the “Boiling Point” value is reported as 28.0 degrees Celcius.

On to `FN(F)C(F)(F)C(F)(F)F` [Ethyl amine, perfluoro], for which the “Boiling Point” value is given as −35.0 degrees Celcius.

On to `CCN` [Ethyl amine], for which the “Boiling Point” value is on record as 16.6 degrees Celcius.

Regarding `CCNC` [Ethyl methyl amine], the “Boiling Point” value is reported as 36.7 degrees Celcius.

Consider `CCOC` [Ethyl methyl ether], for which the “Boiling Point” value is given as 10.8 degrees Celcius.

As to `CCON=O` [Ethyl nitrite], the “Boiling Point” value is 16.0 degrees Celcius.

As for `C=COCC` [Ethyl vinyl ether], the “Boiling Point” value is on record as 35.0 degrees Celcius.

`C=CCC` [Example 1-Butene, 1-Butene]: the “Boiling Point” value is given as −6.3 degrees Celcius.

Take `C#CCC` [Example 1-Butyne, 1-Butyne]: the “Boiling Point” value is 8.1 degrees Celcius.

In the case of `C=CCCC` [Example 1-Pentene, 1-Pentene], the “Boiling Point” value is 30.0 degrees Celcius.

As for `CC#CC` [Example 2-Butyne, 2-Butyne], the “Boiling Point” value was 27.0 degrees Celcius.

Consider `COC=O` [Formic acid, methyl ester], for which the “Boiling Point” value was 31.5 degrees Celcius.

In the case of `C=C1C=CC=C1` [Fulvene], the “Boiling Point” value is given as 7.0 degrees Celcius.

As to `C=C(C)C` [Isobutylene], the “Boiling Point” value is recorded as −6.9 degrees Celcius.

As for `C=CC(=C)C` [Isoprene], the “Boiling Point” value is 34.0 degrees Celcius.

`[Kr]` [Krypton]: the “Boiling Point” value was −153.0 degrees Celcius.

Staying with this data set, now noted: boiling point under standard pressure conditions; chemical list arranged by total atoms; cited from earlier work.
For `CC(C(F)(F)F)C(F)(F)F` [1,1,1,3,3,3-hexafluoro-2-methyl-propane], the “Boiling Point” value was 21.5 degrees Celcius.

With `FCCC(F)(F)F` [1,1,1,3-tetrafluoro-propane], the “Boiling Point” value is listed as 29.4 degrees Celcius.

Take `CCC(F)(F)F` [1,1,1-trifluoro propane]: the “Boiling Point” value is on record as −13 degrees Celcius.

As to `COCC(F)(F)F` [1,1,1-trifluoro-2-methoxy-ethane], the “Boiling Point” value was 31 degrees Celcius.

Consider `CCCC(F)(F)F` [1,1,1-trifluoro-butane], for which the “Boiling Point” value was 16.74 degrees Celcius.

With `CCC=C(F)F` [1,1-difluoro-but-1-ene], the “Boiling Point” value is 3.71 degrees Celcius.

For `C=CC=C(F)F` [1,1-difluoro-buta-1,3-diene], the “Boiling Point” value is given as 3.5 degrees Celcius.

For `FC(F)(Cl)C(F)(F)Cl` [1,2-dichloro-tetrafluoro-ethane], the “Boiling Point” value is on record as 3.5 degrees Celcius.

`CCC(C)(F)F` [2,2 difluoro-butane]: the “Boiling Point” value is 30.92 degrees Celcius.

`C=C(C)C(F)F` [3,3 difluoro-2-methyl-propene]: the “Boiling Point” value was 28.1 degrees Celcius.

For the compound `C=C(C)C(F)(F)F` [3,3,3-trifluoro-2-methyl-propene], the “Boiling Point” value is recorded as 6 degrees Celcius.

In the case of `CC[C@H](C)CF` [(−)(S)-1-fluoro-2-methyl-butane], the “Boiling Point” value is on record as 14.1 degrees Celcius.

Turning to `CC(C)C(F)(F)F` [Example 2-Trifluoromethyl-propane, 2-Trifluoromethyl-propane], the “Boiling Point” value is listed as 13 degrees Celcius.

Staying with this data set, now noted: dispersed phase of emulsions of Example 18; cited from earlier work.
For the compound `FC(F)(F)C(F)(F)C(F)(F)C(F)(F)C(F)(F)C(F)(F)C(F)(F)C(F)(F)I` [1-Iodoperfluorooctane, reference compound], the “Boiling Point” value is 160 °C.

Consider `FC(F)(F)C(F)(F)C(F)(F)C(F)(F)F` [Decaflurobutane], for which the “Boiling Point” value was −5.8 °C.
